Data published in ChEMBL document CHEMBL5370556, “Optimization, and biological evaluation of 3-O-β-chacotriosyl betulinic acid amide derivatives as novel small-molecule Omicron” (Eur J Med Chem, 2023).

Experiments:
[1] = Selectivity index, ratio of CC50 for human 293T/ACE2 cells to EC50 for SARS-CoV-2 Omicron; format: toxicity; conditions: read-out: Ratio CC50/EC50
SARS-CoV-2 = assay: Antiviral activity against luciferase-expressing pseudovirus encoding SARS-CoV-2 Omicron expressing S protein infected in human 293T/ACE2 cells assessed as reduction of viral growth measured after 48 hrs by luciferase assay; format: functional, organism-based; conditions: Severe acute respiratory syndrome coronavirus 2, 293T/ACE2, 48 h
[2] = Cytotoxicity against human 293T/ACE2 cells assessed as reduction in cell growth measured after 48 hrs by MTT assay; format: functional

| Structure (SMILES) | selectivity ratio [1] | EC50 (SARS-CoV-2) [µM] | CC50 [2] [µM] |
| --- | --- | --- | --- |
| C=C(C)[C@@H]1CC[C@]2(C(=O)NCc3cccs3)CC[C@]3(C)[C@H](CC[C@@H]4[C@@]5(C)CC[C@H](O[C@@H]6O[C@H](CO)[C@@H](O[C@@H]7O[C@@H](C)[C@H](O)[C@@H](O)[C@H]7O)[C@H](O)[C@H]6O[C@@H]6O[C@@H](C)[C@H](O)[C@@H](O)[C@H]6O)C(C)(C)[C@@H]5CC[C@]43C)[C@@H]12 | 6.81 | 6.15 | 41.9 |
| C=C(C)[C@@H]1CC[C@]2(C(=O)Nc3ccccc3Cl)CC[C@]3(C)[C@H](CC[C@@H]4[C@@]5(C)CC[C@H](O[C@@H]6O[C@H](CO)[C@@H](O[C@@H]7O[C@@H](C)[C@H](O)[C@@H](O)[C@H]7O)[C@H](O)[C@H]6O[C@@H]6O[C@@H](C)[C@H](O)[C@@H](O)[C@H]6O)C(C)(C)[C@@H]5CC[C@]43C)[C@@H]12 | 8.7 | 5.41 | 47.1 |
| C=C(C)[C@@H]1CC[C@]2(C(=O)Nc3ccc4c(cnn4C)c3)CC[C@]3(C)[C@H](CC[C@@H]4[C@@]5(C)CC[C@H](O[C@@H]6O[C@H](CO)[C@@H](O[C@@H]7O[C@@H](C)[C@H](O)[C@@H](O)[C@H]7O)[C@H](O)[C@H]6O[C@@H]6O[C@@H](C)[C@H](O)[C@@H](O)[C@H]6O)C(C)(C)[C@@H]5CC[C@]43C)[C@@H]12 |  | > 20 |  |
| C=C(C)[C@@H]1CC[C@]2(C(=O)NCc3ccc(-c4ccccc4)cc3)CC[C@]3(C)[C@H](CC[C@@H]4[C@@]5(C)CC[C@H](O[C@@H]6O[C@H](CO)[C@@H](O[C@@H]7O[C@@H](C)[C@H](O)[C@@H](O)[C@H]7O)[C@H](O)[C@H]6O[C@@H]6O[C@@H](C)[C@H](O)[C@@H](O)[C@H]6O)C(C)(C)[C@@H]5CC[C@]43C)[C@@H]12 |  | > 20 |  |
| C=C(C)[C@@H]1CC[C@]2(C(=O)Nc3ccc(-c4ccccc4)cc3)CC[C@]3(C)[C@H](CC[C@@H]4[C@@]5(C)CC[C@H](O[C@@H]6O[C@H](CO)[C@@H](O[C@@H]7O[C@@H](C)[C@H](O)[C@@H](O)[C@H]7O)[C@H](O)[C@H]6O[C@@H]6O[C@@H](C)[C@H](O)[C@@H](O)[C@H]6O)C(C)(C)[C@@H]5CC[C@]43C)[C@@H]12 | 11.9 | 8.46 | 100 |
| C=C(C)[C@@H]1CC[C@]2(C(=O)Nc3cccc(OC)c3)CC[C@]3(C)[C@H](CC[C@@H]4[C@@]5(C)CC[C@H](O[C@@H]6O[C@H](CO)[C@@H](O[C@@H]7O[C@@H](C)[C@H](O)[C@@H](O)[C@H]7O)[C@H](O)[C@H]6O[C@@H]6O[C@@H](C)[C@H](O)[C@@H](O)[C@H]6O)C(C)(C)[C@@H]5CC[C@]43C)[C@@H]12 | 26.9 | 2.73 | 73.3 |
| C=C(C)[C@@H]1CC[C@]2(C(=O)OC)CC[C@]3(C)[C@H](CC[C@@H]4[C@@]5(C)CC[C@H](O[C@@H]6O[C@H](CO)[C@@H](O[C@@H]7O[C@@H](C)[C@H](O)[C@@H](O)[C@H]7O)[C@H](O)[C@H]6O[C@@H]6O[C@@H](C)[C@H](O)[C@@H](O)[C@H]6O)C(C)(C)[C@@H]5CC[C@]43C)[C@@H]12 | 5.8 | 7.04 | 40.9 |
| C=C(C)[C@@H]1CC[C@]2(C(=O)NCCc3ccccc3)CC[C@]3(C)[C@H](CC[C@@H]4[C@@]5(C)CC[C@H](O[C@@H]6O[C@H](CO)[C@@H](O[C@@H]7O[C@@H](C)[C@H](O)[C@@H](O)[C@H]7O)[C@H](O)[C@H]6O[C@@H]6O[C@@H](C)[C@H](O)[C@@H](O)[C@H]6O)C(C)(C)[C@@H]5CC[C@]43C)[C@@H]12 | 26.7 | 8.47 | 226 |
| C=C(C)[C@@H]1CC[C@]2(C(=O)NCc3ccccc3)CC[C@]3(C)[C@H](CC[C@@H]4[C@@]5(C)CC[C@H](O[C@@H]6O[C@H](CO)[C@@H](O[C@@H]7O[C@@H](C)[C@H](O)[C@@H](O)[C@H]7O)[C@H](O)[C@H]6O[C@@H]6O[C@@H](C)[C@H](O)[C@@H](O)[C@H]6O)C(C)(C)[C@@H]5CC[C@]43C)[C@@H]12 | 44.9 | 5.52 | 248 |
| C=C(C)[C@@H]1CC[C@]2(C(=O)NCC3CCCCC3)CC[C@]3(C)[C@H](CC[C@@H]4[C@@]5(C)CC[C@H](O[C@@H]6O[C@H](CO)[C@@H](O[C@@H]7O[C@@H](C)[C@H](O)[C@@H](O)[C@H]7O)[C@H](O)[C@H]6O[C@@H]6O[C@@H](C)[C@H](O)[C@@H](O)[C@H]6O)C(C)(C)[C@@H]5CC[C@]43C)[C@@H]12 |  | > 20 |  |
| C=C(C)[C@@H]1CC[C@]2(C(=O)NCc3ccccc3OC)CC[C@]3(C)[C@H](CC[C@@H]4[C@@]5(C)CC[C@H](O[C@@H]6O[C@H](CO)[C@@H](O[C@@H]7O[C@@H](C)[C@H](O)[C@@H](O)[C@H]7O)[C@H](O)[C@H]6O[C@@H]6O[C@@H](C)[C@H](O)[C@@H](O)[C@H]6O)C(C)(C)[C@@H]5CC[C@]43C)[C@@H]12 |  | > 20 |  |
| C=C(C)[C@@H]1CC[C@]2(C(=O)NNc3ccccc3)CC[C@]3(C)[C@H](CC[C@@H]4[C@@]5(C)CC[C@H](O[C@@H]6O[C@H](CO)[C@@H](O[C@@H]7O[C@@H](C)[C@H](O)[C@@H](O)[C@H]7O)[C@H](O)[C@H]6O[C@@H]6O[C@@H](C)[C@H](O)[C@@H](O)[C@H]6O)C(C)(C)[C@@H]5CC[C@]43C)[C@@H]12 |  | > 20 |  |
| C=C(C)[C@@H]1CC[C@]2(C(=O)Nc3ccc(Cl)cc3)CC[C@]3(C)[C@H](CC[C@@H]4[C@@]5(C)CC[C@H](O[C@@H]6O[C@H](CO)[C@@H](O[C@@H]7O[C@@H](C)[C@H](O)[C@@H](O)[C@H]7O)[C@H](O)[C@H]6O[C@@H]6O[C@@H](C)[C@H](O)[C@@H](O)[C@H]6O)C(C)(C)[C@@H]5CC[C@]43C)[C@@H]12 | 13.5 | 6.5 | 87.5 |
| C=C(C)[C@@H]1CC[C@]2(C(=O)Nc3ccc4sccc4c3)CC[C@]3(C)[C@H](CC[C@@H]4[C@@]5(C)CC[C@H](O[C@@H]6O[C@H](CO)[C@@H](O[C@@H]7O[C@@H](C)[C@H](O)[C@@H](O)[C@H]7O)[C@H](O)[C@H]6O[C@@H]6O[C@@H](C)[C@H](O)[C@@H](O)[C@H]6O)C(C)(C)[C@@H]5CC[C@]43C)[C@@H]12 |  | > 20 |  |
| C=C(C)[C@@H]1CC[C@]2(C(=O)Nc3ccc(OC)cc3)CC[C@]3(C)[C@H](CC[C@@H]4[C@@]5(C)CC[C@H](O[C@@H]6O[C@H](CO)[C@@H](O[C@@H]7O[C@@H](C)[C@H](O)[C@@H](O)[C@H]7O)[C@H](O)[C@H]6O[C@@H]6O[C@@H](C)[C@H](O)[C@@H](O)[C@H]6O)C(C)(C)[C@@H]5CC[C@]43C)[C@@H]12 | 18.9 | 9.44 | 178 |
| C=C(C)[C@@H]1CC[C@]2(C(=O)NCc3ccc(Cl)cc3)CC[C@]3(C)[C@H](CC[C@@H]4[C@@]5(C)CC[C@H](O[C@@H]6O[C@H](CO)[C@@H](O[C@@H]7O[C@@H](C)[C@H](O)[C@@H](O)[C@H]7O)[C@H](O)[C@H]6O[C@@H]6O[C@@H](C)[C@H](O)[C@@H](O)[C@H]6O)C(C)(C)[C@@H]5CC[C@]43C)[C@@H]12 |  | > 20 |  |
| C=C(C)[C@@H]1CC[C@]2(C(=O)NCc3cccc(OC)c3)CC[C@]3(C)[C@H](CC[C@@H]4[C@@]5(C)CC[C@H](O[C@@H]6O[C@H](CO)[C@@H](O[C@@H]7O[C@@H](C)[C@H](O)[C@@H](O)[C@H]7O)[C@H](O)[C@H]6O[C@@H]6O[C@@H](C)[C@H](O)[C@@H](O)[C@H]6O)C(C)(C)[C@@H]5CC[C@]43C)[C@@H]12 |  | > 20 |  |
| C=C(C)[C@@H]1CC[C@]2(C(=O)NCc3ccc(OC)cc3)CC[C@]3(C)[C@H](CC[C@@H]4[C@@]5(C)CC[C@H](O[C@@H]6O[C@H](CO)[C@@H](O[C@@H]7O[C@@H](C)[C@H](O)[C@@H](O)[C@H]7O)[C@H](O)[C@H]6O[C@@H]6O[C@@H](C)[C@H](O)[C@@H](O)[C@H]6O)C(C)(C)[C@@H]5CC[C@]43C)[C@@H]12 |  | > 20 |  |
| C=C(C)[C@@H]1CC[C@]2(C(=O)NCc3ccccc3Cl)CC[C@]3(C)[C@H](CC[C@@H]4[C@@]5(C)CC[C@H](O[C@@H]6O[C@H](CO)[C@@H](O[C@@H]7O[C@@H](C)[C@H](O)[C@@H](O)[C@H]7O)[C@H](O)[C@H]6O[C@@H]6O[C@@H](C)[C@H](O)[C@@H](O)[C@H]6O)C(C)(C)[C@@H]5CC[C@]43C)[C@@H]12 |  | > 20 |  |
| C=C(C)[C@@H]1CC[C@]2(C(=O)NNCc3ccccc3)CC[C@]3(C)[C@H](CC[C@@H]4[C@@]5(C)CC[C@H](O[C@@H]6O[C@H](CO)[C@@H](O[C@@H]7O[C@@H](C)[C@H](O)[C@@H](O)[C@H]7O)[C@H](O)[C@H]6O[C@@H]6O[C@@H](C)[C@H](O)[C@@H](O)[C@H]6O)C(C)(C)[C@@H]5CC[C@]43C)[C@@H]12 |  | > 20 |  |
| C=C(C)[C@@H]1CC[C@]2(C(=O)NCc3ccco3)CC[C@]3(C)[C@H](CC[C@@H]4[C@@]5(C)CC[C@H](O[C@@H]6O[C@H](CO)[C@@H](O[C@@H]7O[C@@H](C)[C@H](O)[C@@H](O)[C@H]7O)[C@H](O)[C@H]6O[C@@H]6O[C@@H](C)[C@H](O)[C@@H](O)[C@H]6O)C(C)(C)[C@@H]5CC[C@]43C)[C@@H]12 |  | > 20 |  |
| C=C(C)[C@@H]1CC[C@]2(C(=O)NCc3cccc(Cl)c3)CC[C@]3(C)[C@H](CC[C@@H]4[C@@]5(C)CC[C@H](O[C@@H]6O[C@H](CO)[C@@H](O[C@@H]7O[C@@H](C)[C@H](O)[C@@H](O)[C@H]7O)[C@H](O)[C@H]6O[C@@H]6O[C@@H](C)[C@H](O)[C@@H](O)[C@H]6O)C(C)(C)[C@@H]5CC[C@]43C)[C@@H]12 |  | > 20 |  |
